Tests used:
Human VR2 [1] = target: T1, Human VR2 (Homo sapiens, UniProt Q9Y5S1); test: Whole-cell patch-clamp of VR2 transiently expressed in HEK293 cells; assay type: cell-based
T1 construct: expressed in transfected cells; host or cells: Xenopus oocytes injected with cRNA
T1 sequence (Q9Y5S1 1-764): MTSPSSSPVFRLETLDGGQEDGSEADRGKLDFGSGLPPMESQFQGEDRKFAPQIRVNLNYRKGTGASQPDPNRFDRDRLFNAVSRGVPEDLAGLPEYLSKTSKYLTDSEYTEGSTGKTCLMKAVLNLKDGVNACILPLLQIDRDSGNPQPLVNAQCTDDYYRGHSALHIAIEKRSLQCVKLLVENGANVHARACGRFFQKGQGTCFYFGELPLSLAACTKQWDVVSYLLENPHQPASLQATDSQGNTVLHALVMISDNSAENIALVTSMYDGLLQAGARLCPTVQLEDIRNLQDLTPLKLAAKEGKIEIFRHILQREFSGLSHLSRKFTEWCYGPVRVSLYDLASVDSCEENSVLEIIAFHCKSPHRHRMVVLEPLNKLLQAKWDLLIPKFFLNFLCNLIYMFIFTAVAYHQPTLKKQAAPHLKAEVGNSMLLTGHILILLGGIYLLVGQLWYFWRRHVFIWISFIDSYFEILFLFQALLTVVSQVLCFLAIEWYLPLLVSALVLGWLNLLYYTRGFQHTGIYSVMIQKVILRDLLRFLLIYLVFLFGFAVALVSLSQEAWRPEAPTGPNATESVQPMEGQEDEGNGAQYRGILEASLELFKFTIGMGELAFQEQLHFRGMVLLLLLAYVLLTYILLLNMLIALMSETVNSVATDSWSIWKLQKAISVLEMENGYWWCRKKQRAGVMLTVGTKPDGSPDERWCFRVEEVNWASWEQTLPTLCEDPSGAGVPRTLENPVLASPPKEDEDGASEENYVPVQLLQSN
Description: Human VR2 was functionally characterized in both HEK293 cells and Xenopus oocytes using electrophysiological methods. VR2 (in the pcDNA3.1 vector purchased by Invitrogen) was transiently expressed in HEK293 cells (ATCC) and recordings were performed 48 hours after transfection of cells using the whole-cell patch-clamp method (described in Bertil Hille, Ionin Channels of excitable membranes, 1992; Hammill et al. (1981) Pluger Arch. 391:85-100).

Human VR2 [2] = target: T1, Human VR2; test: Two-electrode voltage-clamp of VR2 in Xenopus oocytes; assay type: cell-based; conditions: heat stimulation (48-50° C.), 1-10 μM concentration
Description: For the oocyte studies, human VR2 was subcloned into an oocyte expression vector containing 5′- and 3′-UTR of Xenopus β-globin (Chiara et al. (1999) Biochemistry 38(20)6689-6698). In vitro trasncription was carried out as described in Chiara et al. (supra) and cRNA (10-100 ng) was then injected into the oocytes. VR2 function was characterized in the oocytes 48 hours after cRNA injection using a standard two-electrode voltage-clamp.

Human VR2 [3] = target: T1, Human VR2; test: Binding of [3H]-resiniferatoxin to membranes isolated from HEK293 cell homogenates (VR2); conditions: 0.1-10 nM concentration
human VR1 = target: T2, human VR1 (Homo sapiens, UniProt Q8NER1, A11T/S41P/T469I); test: Binding of [3H]-resiniferatoxin to membranes isolated from HEK293 cell homogenates (VR1); conditions: 0.1-10 nM concentration
T2 construct: expressed in transfected cells; host or cells: HEK293 cells (membranes)
T2 sequence (Q8NER1 whole entry A11T/S41P/T469I): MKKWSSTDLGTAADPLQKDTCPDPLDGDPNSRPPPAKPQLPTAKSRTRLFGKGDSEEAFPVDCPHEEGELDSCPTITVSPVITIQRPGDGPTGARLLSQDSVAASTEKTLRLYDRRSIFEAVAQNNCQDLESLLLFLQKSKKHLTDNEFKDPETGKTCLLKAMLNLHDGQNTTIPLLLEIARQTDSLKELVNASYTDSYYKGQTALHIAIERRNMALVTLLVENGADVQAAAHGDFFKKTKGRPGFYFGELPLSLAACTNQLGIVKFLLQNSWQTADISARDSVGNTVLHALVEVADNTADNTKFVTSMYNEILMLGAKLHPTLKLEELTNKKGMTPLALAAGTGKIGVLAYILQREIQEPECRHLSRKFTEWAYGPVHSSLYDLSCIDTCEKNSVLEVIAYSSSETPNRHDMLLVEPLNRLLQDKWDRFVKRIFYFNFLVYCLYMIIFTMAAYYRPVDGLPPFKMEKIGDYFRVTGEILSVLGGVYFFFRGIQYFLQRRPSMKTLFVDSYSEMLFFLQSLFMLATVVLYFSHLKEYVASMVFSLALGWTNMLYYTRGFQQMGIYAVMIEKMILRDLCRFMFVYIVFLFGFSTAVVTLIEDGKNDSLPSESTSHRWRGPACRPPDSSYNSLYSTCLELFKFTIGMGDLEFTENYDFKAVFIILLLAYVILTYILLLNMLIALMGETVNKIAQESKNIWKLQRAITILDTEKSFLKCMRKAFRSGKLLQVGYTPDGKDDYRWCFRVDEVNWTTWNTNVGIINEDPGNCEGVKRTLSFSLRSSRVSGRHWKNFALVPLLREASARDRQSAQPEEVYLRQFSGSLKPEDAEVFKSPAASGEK

For `COc1cc(CNC(=O)CCCC/C=C/C(C)C)ccc1O` [Capsaicin, capsaicin], the “induction of currents from VR2” value (Human VR2 [1]; 1-10 μM concentration) was “do not induce any currents”.
With `Oc1cc2c(cc1O)CN(C(=S)NCCc1ccc(Cl)cc1)CCC2` [capsazepin, capsazepine] the “block of heat-evoked currents of VR2” value (Human VR2 [1]; heat stimulation (>50° C.), 10 μM concentration) was “reversibly blocked” and the “block of the heat response of VR2” value (Human VR2 [2]) was “blocks the heat response of VR2 reversibly”.
With `C=C(C)[C@]12C[C@@H](C)[C@@]34O[C@](Cc5ccccc5)(O[C@@H]1[C@@H]3C=C(COC(=O)Cc1ccc(O)c(OC)c1)C[C@]1(O)C(=O)C(C)=C[C@@H]41)O2` [resiniferatoxin] the “induction of currents from VR2” value (Human VR2 [1]; 0.1-3 μM concentration) was “do not induce any currents”, the “specific binding to VR2” value (Human VR2 [3]) was “no specific binding” and the “binding to human VR1” value (human VR1) was “high affinities”.

Source: patent US7323314B2, “Members of the capsaicin/vanilloid receptor family of proteins and uses thereof” (Bayer HealthCare AG, priority 1998, dated 2008)
